Bounds are passed on as bounds.

The term IC50 denotes the concentration at which inhibition is half-maximal.

The target of experiment [1] is T1, unphosphorylated c-FMS kinase (uFMS, Seq. ID no. 1) (Homo sapiens, UniProt P07333).
T1 construct: purchased Millipore
T1 sequence (P07333 538-972): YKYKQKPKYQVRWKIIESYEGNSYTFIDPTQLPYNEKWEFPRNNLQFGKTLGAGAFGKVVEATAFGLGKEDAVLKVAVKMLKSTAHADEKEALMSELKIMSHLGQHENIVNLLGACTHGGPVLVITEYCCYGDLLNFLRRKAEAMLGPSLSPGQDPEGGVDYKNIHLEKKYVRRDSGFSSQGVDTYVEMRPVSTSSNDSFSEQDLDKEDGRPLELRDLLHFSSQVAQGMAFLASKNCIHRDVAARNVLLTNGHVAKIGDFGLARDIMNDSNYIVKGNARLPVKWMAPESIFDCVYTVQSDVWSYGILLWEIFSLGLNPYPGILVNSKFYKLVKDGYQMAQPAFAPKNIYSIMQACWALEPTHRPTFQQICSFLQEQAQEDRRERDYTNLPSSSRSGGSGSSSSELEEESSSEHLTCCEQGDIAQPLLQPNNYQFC
The experiment is described as follows: uFMS kinase enzymatic assay (pyruvate kinase/lactate dehydrogenase coupled). It counts as biochemical. Conditions: ATP 500 μM, rate 3 to 4 h. How it is done: uFMS Kinase (Seq. ID No. 1) Assay
Activity of unphosphorylated c-FMS kinase (uFMS, Seq. ID no. 1) was determined by following the production of ADP from the FMS kinase reaction with ATP and poly E4Y as substrates through coupling with the pyruvate kinase/lactate dehydrogenase system (e.g., Schindler et al. Science (2000) 289: 1938-1942). In this assay, the oxidation of NADH (thus the decrease at A340 nm) was continuously monitored spectrophometrically. The reaction mixture (100 μL) contained FMS (purchased from Millipore) (10 nM), polyE4Y (1 mg/mL), MgCl2 (10 mM), pyruvate kinase (4 units), lactate dehydrogenase (0.7 units), phosphoenol pyruvate (1 mM), NADH (0.28 mM) and ATP (500 μM) in 90 mM Tris buffer containing 0.2% octyl-glucoside and 1% DMSO, pH 7.5. The inhibition reaction was started by mixing serial diluted test compound with the above reaction mixture. The absorption at 340 nm was monitored continuously for 4 hours at 30° C. on Synergy 2 plate reader. The reaction rate was calculated using the 3 to 4 h time frame. Percent inhibition was obtained by comparison of reaction rate with that of a control (i.e. in the absence of test compound). IC50 values were calculated from a series of percent inhibition values determined at a range of inhibitor concentrations using software routines as implemented in the GraphPad Prism software package.

Experiment [2] concerns the target T2, unphosphorylated c-KIT kinase (uKIT, Seq. ID no. 2) (Homo sapiens, UniProt P10721).
T2 construct: uKit with N-terminal GST fusion used for screening
The experiment is described as follows: uKit kinase enzymatic assay (pyruvate kinase/lactate dehydrogenase coupled). It counts as biochemical. Conditions: ATP 2000 μM, rate 3 to 4 h. The procedure:
uKit Kinase (Seq. ID No. 2) Assay
Activity of unphosphorylated c-KIT kinase (uKIT, Seq. ID no. 2) was determined by following the production of ADP from the KIT kinase reaction with ATP and poly E4Y as substrates through coupling with the pyruvate kinase/lactate dehydrogenase system (e.g., Schindler et al. Science (2000) 289: 1938-1942). In this assay, the oxidation of NADH (thus the decrease at A340 nm) was continuously monitored spectrophometrically. The reaction mixture (100 μl) contained unphosphorylated KIT (12 nM), polyE4Y (1 mg/mL), MgCl2 (10 mM), pyruvate kinase (4 units), lactate dehydrogenase (0.7 units), phosphoenol pyruvate (1 mM), and NADH (0.28 mM) and ATP (2000 μM) in 90 mM Tris buffer containing 0.2% octyl-glucoside and 1% DMSO, pH 7.5. The inhibition reaction was started by mixing serial diluted test compound with the above reaction mixture. The absorption at 340 nm was monitored continuously for 4 hours at 30° C. on Synergy 2 plate reader (BioTech). Reaction rates around 3 to 4 h time frame were used to calculate % inhibitions, from which IC50 values were generated.

Experiment [3] concerns the target T3, unphosphorylated PDGFRβ kinase (uPDGFRβ, Seq. ID No. 3) (Homo sapiens, UniProt P09619).
T3 construct: purchased DeCode
As to the kind of experiment: uPDGFRβ kinase enzymatic assay (pyruvate kinase/lactate dehydrogenase coupled). It counts as biochemical. Conditions: ATP 500 μM, rate 1.5 to 2.5 h. The procedure: Unphosphorylated PDGFRβ (uPDGFRβ) Kinase (Seq. ID No. 3) Assay
Activity of unphosphorylated PDGFRβ kinase (uPDGFRβ, Seq. ID No. 3) was determined by following the production of ADP from the kinase reaction with ATP and poly E4Y as substrates through coupling with the pyruvate kinase/lactate dehydrogenase system (e.g., Schindler et al. Science (2000) 289: 1938-1942). In this assay, the oxidation of NADH (thus the decrease at A340 nm) was continuously monitored spectrophometrically. The reaction mixture (100 μL) contained PDGFRβ (DeCode, 15.7 nM), polyE4Y (2.5 mg/mL), MgCl2 (10 mM), pyruvate kinase (4 units), lactate dehydrogenase (0.7 units), phosphoenol pyruvate (1 mM) and NADH (0.28 mM) and ATP (500 μM) in a 90 mM Tris buffer containing 0.2% octyl-glucoside and 1% DMSO, at pH 7.5. The inhibition reaction was started by mixing serial diluted test compound with the above reaction mixture. The absorption at 340 nm was monitored continuously for 4 h at 30° C. on a Polarstar Optima or Synergy 2 plate reader. The reaction rate was calculated using the 1.5 to 2.5 h time frame. Percent inhibition was obtained by comparison of reaction rate with that of a control (i.e. with no test compound). IC50 values were calculated from a series of percent inhibition values determined at a range of inhibitor concentrations using software routines as implemented in the GraphPad Prism software package.

The next experiment relates to M-NFS-60 cells. The experiment is described as follows: M-NFS-60 cell proliferation assay (resazurin). It counts as cell-based. Conditions: 67 h incubation. The procedure: M-NFS-60 cells (catalog #CRL-1838) were obtained from the American Type Culture Collection (ATCC, Manassas, Va.). Briefly, cells were grown in suspension in RPMI 1640 medium supplemented with 10% characterized fetal bovine serum (Invitrogen, Carlsbad, Calif.), 0.05 mM 2-mercaptoethanol, and 20 ng/mL mouse recombinant macrophage colony stimulating factor (M-CSF) at 37° C., 5% CO2, and 95% humidity. Cells were allowed to expand until reaching saturation at which point they were subcultured or harvested for assay use.
M-NFS-60 Cell Proliferation Assay
A serial dilution of test compound was dispensed into a 384-well black clear bottom plate (Corning, Corning, N.Y.). Two thousand five hundred cells were added per well in 50 μL complete growth medium. Plates were incubated for 67 h at 37° C., 5% CO2, and 95% humidity. At the end of the incubation period 10 μL of a 440 μM solution of resazurin (Sigma, St. Louis, Mo.) in PBS was added to each well and incubated for an additional 5 h at 37° C., 5% CO2, and 95% humidity. Plates were read on a Synergy2 reader (Biotek, Winooski, Vt.) using an excitation of 540 nm and an emission of 600 nm. IC50 values were calculated from a series of percent inhibition values determined at a range of inhibitor concentrations using software routines as implemented in the GraphPad Prism software package.
For orientation: The colour change of resazurin is a common sign of viable cells or microbes.

The next experiment relates to osteoclast precursors. The experiment is described as follows: Osteoclast tartrate-resistant acid phosphatase assay. The experiment is classed as cell-based. To be noted: RANKL and M-CSF, 7-14 days, tartrate-resistant acid phosphatase activity. The procedure:
Osteoclast Tartrate-Resistant Acid Phosphatase Assay
A serial dilution of test compound was dispensed into a 384-well black clear bottom plate (Nalge Nunc International, Rochester, N.Y.). Compound was diluted by the addition of DMEM media supplemented with 10% characterized fetal bovine serum (Invitrogen, Carlsbad, Calif.). Diluted compound was transferred to a 384-well black clear bottom plate. Two-thousand five hundred osteoclast precursors (Lonza, Walkersville, Md.) were added per well in growth media containing Receptor Activator of Nuclear Factor Kappa-beta ligand (RANKL) and M-CSF (R&D Systems, Minneapolis, Minn.). Plates were incubated for 7-14 days at 37 degrees Celsius, 5% CO2, and 95% humidity to allow differentiation of osteoclast precursors. At the end of the incubation period, 10 μL of supernatant from each well was transferred to a clear 384-well plate. Tartrate-resistant acid phosphatase activity in the supernatant samples was determined using an acid phosphatase assay kit (Sigma, St. Louis, Mo.). Absorbance was measured at 550 nm using a plate reader. Data was analyzed using Prism software (Graphpad, San Diego, Calif.) to calculate IC50 values.

T3 sequence (P09619 557-1106): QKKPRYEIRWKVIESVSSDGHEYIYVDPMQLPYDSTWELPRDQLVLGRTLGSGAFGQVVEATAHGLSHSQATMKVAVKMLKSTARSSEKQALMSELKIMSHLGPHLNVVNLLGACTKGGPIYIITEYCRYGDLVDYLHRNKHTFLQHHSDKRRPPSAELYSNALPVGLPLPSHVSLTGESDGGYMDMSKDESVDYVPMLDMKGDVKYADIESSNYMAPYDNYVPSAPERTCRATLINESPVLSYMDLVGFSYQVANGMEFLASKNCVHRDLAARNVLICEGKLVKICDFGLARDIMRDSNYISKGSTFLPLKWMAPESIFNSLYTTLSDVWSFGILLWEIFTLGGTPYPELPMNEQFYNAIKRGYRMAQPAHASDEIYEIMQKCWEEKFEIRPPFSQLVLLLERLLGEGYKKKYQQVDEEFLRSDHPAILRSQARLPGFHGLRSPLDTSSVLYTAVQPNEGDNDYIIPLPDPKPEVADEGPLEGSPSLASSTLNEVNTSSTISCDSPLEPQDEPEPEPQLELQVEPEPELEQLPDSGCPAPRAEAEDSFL
T2 sequence (P10721 with tags, fused parts or gaps): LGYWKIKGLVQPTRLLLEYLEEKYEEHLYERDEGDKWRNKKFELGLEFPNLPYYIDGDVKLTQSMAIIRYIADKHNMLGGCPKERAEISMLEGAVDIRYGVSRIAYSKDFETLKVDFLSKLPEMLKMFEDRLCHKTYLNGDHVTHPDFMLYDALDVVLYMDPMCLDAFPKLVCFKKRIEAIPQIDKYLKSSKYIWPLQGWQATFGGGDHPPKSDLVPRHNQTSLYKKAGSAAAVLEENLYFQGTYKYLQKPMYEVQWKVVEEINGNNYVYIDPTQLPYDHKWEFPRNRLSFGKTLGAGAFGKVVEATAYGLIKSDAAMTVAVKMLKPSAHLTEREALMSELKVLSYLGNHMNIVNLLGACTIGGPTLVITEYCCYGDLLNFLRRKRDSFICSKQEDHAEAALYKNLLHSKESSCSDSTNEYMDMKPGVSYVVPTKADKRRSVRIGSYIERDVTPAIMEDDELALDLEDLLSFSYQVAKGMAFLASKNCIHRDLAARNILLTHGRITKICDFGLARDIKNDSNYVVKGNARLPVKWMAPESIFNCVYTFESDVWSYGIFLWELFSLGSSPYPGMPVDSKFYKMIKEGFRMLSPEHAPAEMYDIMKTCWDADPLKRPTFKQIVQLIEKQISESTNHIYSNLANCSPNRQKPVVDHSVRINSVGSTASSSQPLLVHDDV

For the compound `Cc1nc(-n2nc(-c3ccc(F)cc3)[nH]c2=O)ccc1Oc1ccnc(-c2cnn(C)c2)c1` [Example 28, 3-(4-fluorophenyl)-1-(6-methyl-5-((2-(1-methyl-1H-pyrazol-4-yl)pyridin-4-yl)oxy)pyridin-2-yl)-1H-1,2,4-triazol-5(4H)-one], the IC50 in experiment [1] was no more than 10 nM; in experiment [2], 10 to 100 nM; in experiment [3] it was greater than 1000 nM; in the experiment on M-NFS-60 cells, 10 to 100 nM; in the experiment on osteoclast precursors, 10 to 100 nM.
Consider `CCc1nc(-n2nc(C(C)(C)C)[nH]c2=O)ccc1Oc1ccnc(-c2cnn(C)c2)c1` [Example 8, 3-(tert-butyl)-1-(6-ethyl-5-((2-(1-methyl-1H-pyrazol-4-yl)pyridin-4-yl)oxy)pyridin-2-yl)-1H-1,2,4-triazol-5(4H)-one], for which the IC50 is 100 to 1000 nM in experiment [1]; greater than 1000 nM in experiment [2]; greater than 1000 nM in experiment [3]; 100 to 1000 nM with M-NFS-60 cells; 100 to 1000 nM in the experiment with osteoclast precursors.
Consider `Cc1nc(-n2nc(-c3ccc(F)cc3)[nH]c2=O)ccc1Oc1ccnc(NC(=O)C2CC2)c1` [Example 32, N-(4-((6-(3-(4-fluorophenyl)-5-oxo-4,5-dihydro-1H-1,2,4-triazol-1-yl)-2-methylpyridin-3-yl)oxy)pyridin-2-yl)cyclopropanecarboxamide], for which the IC50 in experiment [1] was 10 to 100 nM; in experiment [2], 10 to 100 nM; in experiment [3], 100 to 1000 nM; in the experiment with M-NFS-60 cells, 100 to 1000 nM; in the experiment with osteoclast precursors, 100 to 1000 nM.
Take `Cc1cn(-c2cc(Oc3ccc(-n4nc(-c5ccc(F)cc5)[nH]c4=O)nc3C)ccn2)cn1` [Example 29, 3-(4-fluorophenyl)-1-(6-methyl-5-((2-(4-methyl-1H-imidazol-1-yl)pyridin-4-yl)oxy)pyridin-2-yl)-1H-1,2,4-triazol-5(4H)-one]: the IC50 is 10 to 100 nM in experiment [1]; 100 to 1000 nM in experiment [2]; greater than 1000 nM in experiment [3]; 100 to 1000 nM in the experiment with M-NFS-60 cells; 100 to 1000 nM in the experiment on osteoclast precursors.
Turning to `Cc1nc(-n2nc(C(C)(C)C)[nH]c2=O)ccc1Oc1ccnc(-c2cnn(CCO)c2)c1` [Example 18, 3-(tert-butyl)-1-(5-((2-(1-(2-hydroxyethyl)-1H-pyrazol-4-yl)pyridin-4-yl)oxy)-6-methylpyridin-2-yl)-1H-1,2,4-triazol-5(4H)-one], the 50% inhibitory concentration (IC50) in experiment [1] was 10 to 100 nM; in experiment [2], 100 to 1000 nM; in experiment [3], greater than 1000 nM; in the experiment on M-NFS-60 cells, 100 to 1000 nM; with osteoclast precursors it was 100 to 1000 nM.
For the compound `COC(C)(C)c1nn(-c2cc(C)c(Oc3ccnc(NC(C)=O)c3)cn2)c(=O)[nH]1` [Example 44, N-(4((6-(3-(2-methoxypropan-2-yl)-5-oxo-4,5-dihydro-1H-1,2,4-triazol-1-yl)-4-methylpyridin-3-yl)oxy)pyridin-2-yl)acetamide], the IC50 (in experiment [1]; in experiment [2]; in experiment [3]; in the experiment on M-NFS-60 cells; with osteoclast precursors) was 100 to 1000 nM in each case.
Take `Cc1cn(-c2cc(Oc3ccc(-n4nc(C(C)(C)C)[nH]c4=O)nc3C)ccn2)cn1` [Example 19, 3-(tert-butyl)-1-(6-methyl-5-((2-(4-methyl-1H-imidazol-1-yl)pyridin-4-yl)oxy)pyridin-2-yl)-1H-1,2,4-triazol-5(4H)-one]: the IC50 in experiment [1] is 10 to 100 nM; in experiment [2], greater than 1000 nM; in experiment [3], greater than 1000 nM; with M-NFS-60 cells it was 100 to 1000 nM; in the experiment on osteoclast precursors it was 100 to 1000 nM.
As to `Cc1nc(-n2nc(C(C)(C)CO)[nH]c2=O)ccc1Oc1ccnc(-c2cnn(C)c2)c1` [Example 42, 3-(1-hydroxy-2-methylpropan-2-yl)-1-(6-methyl-5-((2-(1-methyl-1H-pyrazol-4-yl)pyridin-4-yl)oxy)pyridin-2-yl)-1H-1,2,4-triazol-5(4H)-one], the IC50 is 10 to 100 nM in experiment [1]; greater than 1000 nM in experiment [2]; greater than 1000 nM in experiment [3]; greater than 1000 nM in the experiment on M-NFS-60 cells; 100 to 1000 nM with osteoclast precursors.
With `Cc1nc(-n2nc(C3CC3)[nH]c2=O)ccc1Oc1ccnc(-c2cnn(C)c2)c1` [Example 35, 3-cyclopropyl-1-(6-methyl-5-((2-(1-methyl-1H-pyrazol-4-yl)pyridin-4-yl)oxy)pyridin-2-yl)-1H-1,2,4-triazol-5(4H)-one], the half-maximal inhibitory concentration (IC50) is 100 to 1000 nM in experiment [1]; 100 to 1000 nM in experiment [2]; greater than 1000 nM in experiment [3]; greater than 1000 nM in the experiment with M-NFS-60 cells; 100 to 1000 nM with osteoclast precursors.

For the origin of these results see patent US9193719B2, “1,2,4-triazol-5-ones and analogs exhibiting anti-cancer and anti-proliferative activities” (Deciphera Pharmaceuticals, LLC, priority 2013, dated 2015).
